Consider five compounds from patent US8569265B2, “Deuterated analogs of (4S)-4-ethyl-4-hydroxy-11-[2- (trimethylsilyl)ethyl]-1H-pyrano[3′, 4′:6,7] indolizino [1,2-b]quinoline-3,14(4H, 12H)-dione and methods of use thereof” (BioNumerik Pharmaceuticals, Inc., priority 2011, dated 2013).

For series [1], the system named is wild-type human ovarian cancer cells (A2780/WT). The series is described as follows: Sulforhodamine B (SRB) cytotoxicity assay, A2780/WT. The class given is cell-based. Conditions: for pIC50: Homo sapiens, A2780/WT, 2 hour drug treatments; for IC50 values in words (inhibition of cell growth): wild-type (A2780/WT) ovarian cancer cells. The source says: (§1) The sulforhodamine B (SRB) assay was used to assess cytotoxicity and absorbance at 570 nm (A570) in order to calculate the percentage of cell control (or percent cell survival) for wild-type human ovarian cancer cells (A2780/WT) and doxorubicin-resistant human ovarian cancer cells (A2780/DX5) treated with BNP1350, BNP10120 (a di-deuterated analog of BNP1350) and BNP10121 (a tetra-deuterated analog of BNP1350).
(§2) Roswell Park Memorial Institute (RPMI 1640) medium, fetal bovine serum (FBS), and L-glutamine were purchased from Gibco BRL. Drugs were dissolved in sterile dimethylsulfoxide (DMSO), from American Type Culture Collection (ATCC) for stock solutions (2.5 to 5.0 mM). Subsequent dilutions were made using cell culture medium (prior to adding the drug to cells). SRB was purchased from Sigma and dissolved in 1.0 percent acetic acid. Trichloroacetic acid was purchased from VWR International. BNP1350, BNP10120 (a di-deuterated analog of BNP1350) and BNP10121 (a tetra-deuterated analog of BNP1350) were synthesized and purified by BioNumerik Pharmaceuticals, Inc.
(§3) Cells were manipulated in a Class IIA/B3 Biological Safety Cabinet (Forma Scientific) and maintained at 37° C. in a humidified atmosphere containing 5% CO2 in a water-jacketed cell culture incubator (Forma Scientific). Cells were counted using a Coulter-Z1 counter (Beckman-Coulter). Following drug treatment, plates were washed using a Biomek 2000 station (Beckman) and, following exposure to SRB dye, plates were washed using an automated plate washer (Model EL404, Bio-Tek Instruments). Percentage of control was correlated to A570 values and determined using a Model EL800 plate reader (Bio-Tek Instruments).
(§4) Wild-type human ovarian cancer cells (A2780/WT) and doxorubicin-resistant human ovarian cancer cells (A2780/DX5) were cultured in RPMI 1640 medium supplemented with 10% fetal bovine serum and 2 mM L-glutamine, and grown in a 37° C. incubator with 5% CO2. Population doubling times for the two cell lines used in this study encompassed a total of five cell doublings corresponding to approximately 5 days for A2780/WT and A2780/DX5 cells. Both cell lines were maintained as monolayered cultures in T-25 or T-75 flasks and then seeded to microtiter plate wells for experiments described herein.
(§5) In brief, cells were seeded (500 cells/well in 100 μL total volume) into 96-well microtiter plates and allowed to attach for 24 hours prior to treatment with BNP1350, BNP10120 or BNP10121 for 2 hours. The aforementioned compounds were dissolved in DMSO for use in cytotoxicity experiments where inhibition of cell growth was measured using the SRB assay.
(§6) Following this 2 hour drug treatment, the BNP1350, BNP10120 and BNP10121 were removed, cells were washed with drug-free media (200 μL) and then drug-free media (200 μL) was added to the cells and cells were allowed to continue growing at 37° C. with 5% CO2 before the SRB assay was performed (total experiment time from time of seeding was 5 days, during which time a total of 5 cell doublings had occurred).
(§7) Prior to SRB assays, cell viability was monitored by evaluation of microtiter plate wells. Dead cells detach and float while living cells remain attached to the bottom of the cell well.
(§8) The sulforhodamine B (SRB) cytotoxicity assay (see, Skehan P, et al., New colorimetric cytotoxicity assay for anticancer-drug screening. J. Natl. Cancer Inst. 82:1107-1112 (1990)) was used to determine the cytotoxic effects of BNP1350, BNP10120 or BNP10121 on cell growth in vitro. Briefly, after the medium was aspirated from individual plate wells, trichloroacetic acid (100 μL of 10.0% solution) was added to each well, and the plates were incubated at 4° C. for at least 1 hour. The plates were washed five-times with water using an automated microplate washer (Model EL 404, Bio-Tek Instruments), SRB solution (100 μL of 0.4 grams SRB dissolved in 100 mL 1.0 percent acetic acid) was added, and plates remained at room temperature for 15 minutes. […]

Series [2] concerns doxorubicin-resistant human ovarian cancer cells (A2780/DX5). The series is described as follows: Sulforhodamine B (SRB) cytotoxicity assay, A2780/DX5. The class given is cell-based. Conditions: for pIC50: Homo sapiens, A2780/DX5, 2 hour drug treatments; for IC50 values in words (inhibition of cell growth): doxorubicin resistant (A2780/DX5) ovarian cancer cells.
Text: as §1, §2, §3, §4, §5, §6, §7, §8

Series [3] concerns malignant melanoma and carcinoma cells (colon carcinoma, glioblastoma, and small lung cell cancer cells). Conditions: cited from earlier work.
The subject of series [4] is PHA-stimulated lymphocytes and normal glial cells. Particulars: 90% D2O; cited from earlier work.
The conditions of series [5]: clinical trial; cited from earlier work.
[6] abbreviates: average of Test 1 and Test 2, read-out: IC50 Average.

Molecules are shown by their SMILES. pIC50: −log10 of the molar value. Where two headings read alike, the source gives them in different places.

With `CC[C@@]1(O)C(=O)OCc2c1cc1n(c2=O)Cc2c-1nc1ccccc1c2CC[Si](C)(C)C` [BNP1350, (4S)-4-Ethyl-4-hydroxy-11-[2-(trimethylsilyl)ethyl]-1H-pyrano[3′,4′:6,7]indolizino[1,2-b]quinoline-3,14(4H,12H)-dione, reference compound], the pIC50 in series [1] (setting [6]) was 8.72; in series [1] (read-out: IC50 Test 1) it was 8.72; in series [1] (read-out: IC50 Test 2) it was 8.74; in series [2] (setting [6]), 8.14; in series [2] (read-out: IC50 Test 1), 8.11; in series [2] (read-out: IC50 Test 2), 8.16. The “IC50 values in words (inhibition of cell growth)” value in series [1] and in series [2] was “nanomolar” in each case.
As to `[2H]C1([2H])c2c(nc3ccccc3c2CC[Si](C)(C)C)-c2cc3c(c(=O)n21)COC(=O)[C@]3(O)CC` [BNP10120, (4S)-12,12-Dideutero-4-ethyl-4-hydroxy-11-[2-(trimethylsilyl)ethyl]-1H-pyrano[3′,4′:6,7]indolizino[1,2-b]quinoline-3,14(4H,12H)-dione], the pIC50 is 8.59 in series [1] (setting [6]); 8.46 in series [1] (read-out: IC50 Test 1); 8.80 in series [1] (read-out: IC50 Test 2); 8.07 in series [2] (setting [6]); 8.00 in series [2] (read-out: IC50 Test 1); 8.15 in series [2] (read-out: IC50 Test 2). Further, the “IC50 values in words (inhibition of cell growth)” value in series [1] and in series [2] was “nanomolar” each time.
On to `[2H]C([2H])(c1c2c(nc3ccccc13)-c1cc3c(c(=O)n1C2)COC(=O)[C@]3(O)CC)C([2H])([2H])[Si](C)(C)C` [BNP10121, (S)-4-Ethyl-4-hydroxy-11-[1,1,2,2-tetradeutero-2-(trimethylsilyl)ethyl]-1H-pyrano[3′,4′:6,7]indolizino[1,2-b]quinoline-3,14(4H,12H)-dione], for which the pIC50 in series [1] (setting [6]) was 8.21; in series [1] (read-out: IC50 Test 1), 8.21; in series [1] (read-out: IC50 Test 2) it was 8.22; in series [2] (setting [6]) it was 7.93; in series [2] (read-out: IC50 Test 1), 7.92; in series [2] (read-out: IC50 Test 2) it was 7.95. For the same compound, the “IC50 values in words (inhibition of cell growth)” value in series [1] and in series [2] was “nanomolar” in each case.
Consider `[2H]O[2H]` [D2O], for which the cells killed is given as 70% in series [3] (90% D2O, malignant melanoma and carcinoma cells); 5% in series [4]. The “viable fraction of malignant cells” value in series [3] (9 days of treatment with 90% D2O) was “about 0.1%”.
For the compound `[2H]C([2H])([2H])Oc1ccc(C(CN(C([2H])([2H])[2H])C([2H])([2H])[2H])C2(O)CCCCC2)cc1` (centres unmarked) [SD-254], in series [5], the “rate of metabolism relative to Effexor” value is on record as “half as fast” and the “time after which pharmacologically-effective levels of the drug were maintained” value is on record as 24 hours.
